Results published in ChEMBL document CHEMBL1201862, “PubChem BioAssay data set” (2004).
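Exposure lasted 48 hours, with cells grown in 96-well plates and compounds tested at five concentrations. GI50 marks 50% less growth.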 Activity calls are given as the source filed them. Rule as the data show it: active = GI50 up to about 1.1 µM and inactive = higher.

Columns and labels:
Assay in all cases: inhibition of tumour cell growth, NCI panel, 48 h
MDA-MB-435 = system: MDA-MB-435
UACC-257 = system: UACC-257
ACHN = system: ACHN
CAKI-1 = system: CAKI-1
MOLT-4 = system: MOLT-4
OVCAR-5 = system: OVCAR-5
M14 = system: M14
U-251 = system: U-251
UACC-62 = system: UACC-62
HL-60 = system: HL-60
786-0 = system: 786-0
OVCAR-3 = system: OVCAR-3
A549 = system: A549
CCRF-CEM = system: CCRF-CEM
NCI-H23 = system: NCI-H23
OVCAR-8 = system: OVCAR-8
NCI-H522 = system: NCI-H522
HCC 2998 = system: HCC 2998
SNB-75 = system: SNB-75
SNB-19 = system: SNB-19

Measured: GI50

COC(=O)C1C(OC(=O)C(Cl)(c2ccccc2)c2ccccc2)CC2CCC1N2C (stereo not given)
inactive: MDA-MB-435 > 100 µM | UACC-257 > 100 µM | ACHN > 100 µM | CAKI-1 94.6 µM | MOLT-4 > 100 µM | OVCAR-5 > 100 µM | M14 45.1 µM | U-251 > 100 µM | UACC-62 > 100 µM | HL-60 > 100 µM | 786-0 > 100 µM | OVCAR-3 > 100 µM | A549 > 100 µM | CCRF-CEM > 100 µM | NCI-H23 > 100 µM | OVCAR-8 > 100 µM | NCI-H522 > 100 µM | HCC 2998 > 100 µM | SNB-75 > 100 µM | SNB-19 > 100 µM

C=CCOC(=O)NC1C(OC(C)[C@@H](NC(=O)OCc2ccccc2)C(=O)OC(C)(C)C)OC(COC(C)=O)C(OC(C)=O)C1OC(C)=O (stereo not given in full)
inactive: MDA-MB-435 39.4 µM | UACC-257 > 100 µM | ACHN > 100 µM | CAKI-1 > 100 µM | MOLT-4 25.8 µM | OVCAR-5 > 100 µM | M14 46.1 µM | U-251 > 100 µM | UACC-62 > 100 µM | HL-60 69.5 µM | 786-0 > 100 µM | OVCAR-3 > 100 µM | A549 > 100 µM | CCRF-CEM 53.3 µM | NCI-H23 > 100 µM | OVCAR-8 65 µM | NCI-H522 63.8 µM | HCC 2998 > 100 µM | SNB-75 2.85 µM | SNB-19 > 100 µM

COc1ccc2c(=O)cc(-c3ccc(OC)c(OC)c3OC)oc2c1
inactive: MDA-MB-435 > 100 µM | UACC-257 > 100 µM | ACHN > 63.2 µM | CAKI-1 > 82.4 µM | MOLT-4 55.5 µM | OVCAR-5 > 69 µM | M14 > 100 µM | U-251 > 100 µM | UACC-62 48.8 µM | HL-60 30.1 µM | 786-0 > 100 µM | OVCAR-3 > 44.4 µM | A549 4.81 µM | CCRF-CEM > 31.6 µM | NCI-H23 > 100 µM | OVCAR-8 > 100 µM | NCI-H522 > 39.8 µM | HCC 2998 > 63.8 µM | SNB-75 23.4 µM | SNB-19 > 60.4 µM

O=C(O)CN1CCN(CC(=O)O)CCN(CC(=O)O)CCN(CC(=O)O)CC1 [TETRAXETAN]
inactive: MDA-MB-435 > 100 µM | UACC-257 > 100 µM | ACHN > 100 µM | CAKI-1 > 100 µM | MOLT-4 > 100 µM | OVCAR-5 > 100 µM | M14 > 100 µM | U-251 > 100 µM | UACC-62 > 100 µM | HL-60 > 100 µM | 786-0 > 100 µM | OVCAR-3 > 100 µM | A549 > 100 µM | CCRF-CEM > 100 µM | NCI-H23 > 100 µM | OVCAR-8 > 100 µM | NCI-H522 > 100 µM | HCC 2998 > 100 µM | SNB-75 > 100 µM | SNB-19 > 100 µM
